Source: article PMC8510124, “Design, Synthesis, Biological Evaluation and In Silico Study of Benzyloxybenzaldehyde Derivatives as Selective ALDH1A3 Inhibitors” (Molecules, 2021)

Key:
ALDH1A3 [1] = biological target: T1, ALDH1A3 (Homo sapiens, UniProt P47895); test: fluorimetric NADH assay, single point […], […] hexanal (near Km); format: biochemical; settings: read-out: Remaining Activity ± SE (%) at 10 μM Compound / ALDH1A3 / [S] near Km (10 μM Hex)
T1 construct: recombinant, N-terminal (His)6 tag
T1 sequence (P47895 2-512): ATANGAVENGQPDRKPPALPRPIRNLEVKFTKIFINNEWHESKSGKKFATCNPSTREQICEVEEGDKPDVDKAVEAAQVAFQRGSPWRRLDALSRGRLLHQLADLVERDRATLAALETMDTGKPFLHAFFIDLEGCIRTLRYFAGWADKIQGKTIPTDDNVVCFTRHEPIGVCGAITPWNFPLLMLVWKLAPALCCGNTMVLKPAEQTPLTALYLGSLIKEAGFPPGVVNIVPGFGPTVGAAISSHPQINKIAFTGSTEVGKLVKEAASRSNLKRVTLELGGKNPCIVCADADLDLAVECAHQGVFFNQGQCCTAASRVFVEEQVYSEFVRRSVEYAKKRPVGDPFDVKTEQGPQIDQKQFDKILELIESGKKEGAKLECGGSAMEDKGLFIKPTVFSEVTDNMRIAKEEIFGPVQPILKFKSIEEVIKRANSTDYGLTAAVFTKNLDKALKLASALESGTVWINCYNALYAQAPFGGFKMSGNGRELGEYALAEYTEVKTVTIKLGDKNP

ALDH1A3 [2] = biological target: T1, ALDH1A3; test: fluorimetric NADH dehydrogenase assay, […] hexanal, IC50 curve; format: biochemical; settings: read-out: IC50 (μM) ± SE ALDH1A3

**Q.** For `COc1cc(C=O)ccc1OC(=O)c1ccc(Cl)cc1` [ABMM-1, 4-Formyl-2-methoxyphenyl 4-Chlorobenzoate], which remaining activity at 10 µM (ALDH1A3 [1]) is on record?
**A.** The remaining activity at 10 µM was 21.07 ± 0.1%.

**Q.** How did the IC50 (ALDH1A3 [2]) turn out when `O=Cc1ccc(OCc2ccc(Cl)cc2)cc1` [ABMM-15, 4-((4-Chlorobenzyl)oxy)benzaldehyde] was run?
**A.** Its IC50 is 0.23 ± 0.05 µM.

**Q.** Which IC50 (ALDH1A3 [2]) does the source give for `COc1cc(C=O)ccc1OCc1ccc(Cl)cc1` [ABMM-16, 4-((4-Chlorobenzyl)oxy)-3-methoxybenzaldehyde] here?
**A.** The IC50 was 1.29 ± 0.1 µM.

**Q.** `COc1cc(C=O)cc(OC)c1OC(=O)c1ccc(F)cc1` [ABMM-18, 4-Formyl-2,6-dimethoxyphenyl 4-Fluorobenzoate] was tested. Which remaining activity at 10 µM (ALDH1A3 [1]) did it give?
**A.** Its remaining activity at 10 µM is 16 ± 3.4%.
